≈ marks a conversion by molar mass, not a printed value.
Legend:
Experiment in all cases: In vitro antibacterial evaluation: minimum inhibitory concentration (MIC), broth dilution method
Type in all cases: cell-based
Streptococcus sp. = test system: Streptococcus sp.
How it was run: (§1)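 MIC read as lowest drug level preventing visible growth. Organisms at 5×10^5 CFU/mL were exposed to a 64-0.06 μg/mL dilution series in Muller-Hinton II […] following NCCLS broth dilution standard M7-A2.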

Enterococcus sp. = test system: Enterococcus sp.
How it was run: as §1

Staphylococcus sp. = settings: for MIC Staphylococcus aureus (ATCC 29213) / MIC Staphylococcus aureus (GC 1131) / MIC Staphylococcus aureus (GC 3051) / MIC Staphylococcus aureus (GC 3053) / MIC Staphylococcus aureus (GC 4541) / MIC Staphylococcus aureus (GC 4542) / MIC Staphylococcus aureus (GC 4544) / MIC Staphylococcus aureus (GC 4545): broth dilution, 18 hours at 35° C.
How it was run: as §1

Escherichia coli = test system: Escherichia coli
How it was run: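 Susceptibility determined by NCCLS-recommended broth dilution (M7-A2), Muller-Hinton II […]. Concentration span 64-0.06 μg/mL, inoculum 5×10^5 CFU/mL. Isolates include strains resistant to methicillin, penicillin and/or vancomycin.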

[1] = broth dilution, inoculum 5×10^5 CFU/mL, 18 hours at 35° C.

For `CC(C)=CCCC(C)=CCOc1ccc(C2OCC3OC(OC4C(CO)OC(Oc5ccc(CC6NC(=O)C(C(C)c7ccccc7)NC(=O)CNC(=O)C(CO)NC(=O)C(C(O)C7CNC(=N)N7C7OC(CO)C(O)C(O)C7O)NC(=O)C(C(O)C7CNC(=N)N7)NC6=O)cc5)C(O)C4O)C(O)C(O)C3O2)cc1` (stereo not drawn) [Example 183, Cyclo[glycyl-β-methylphenylalanyl-O-[4-O-[4,6-O-[4-[(3,7-dimethylocta-2,6-dien-1-yl)oxy]-benzylidene]hexopyranosyl]hexopyranosyl]tyrosyl-3-(2-iminoimidazolidin-4-yl)seryl-3-(3-hexopyranosyl-2-iminoimidazolidin-4-yl)serylseryl]], the “MIC Streptococcus agalactiae (GC 4564)” value (Streptococcus sp.; [1]) was less than 0.06 µg/mL, the “MIC Streptococcus pneumoniae (ATCC 6301)” value (Streptococcus sp.; [1]) was less than 0.06 µg/mL and the “MIC Streptococcus pneumoniae (GC 1894)” value (Streptococcus sp.; [1]) was less than 0.06 µg/mL. The “MIC Streptococcus pneumoniae (GC 4565)” value (Streptococcus sp.; [1]) was less than 0.06 µg/mL, the “MIC Streptococcus pyogenes (GC 4563)” value (Streptococcus sp.; [1]) was less than 0.06 µg/mL and the “MIC Streptococcus pneumoniae (ATCC 6301)” value (Streptococcus sp.; strain ATCC 6301) was less than 0.06 µg/mL. The “MIC Streptococcus pneumoniae (GC 1894)” value (Streptococcus sp.; strain GC 1894) was less than 0.06 µg/mL, the “MIC Streptococcus pyogenes (GC 4563)” value (Streptococcus sp.; strain GC 4563) was less than 0.06 µg/mL and the “MIC Streptococcus agalactiae (GC 4564)” value (Streptococcus sp.; strain GC 4564) was less than 0.06 µg/mL. The “MIC Streptococcus pneumoniae (GC 4565)” value (Streptococcus sp.; strain GC 4565) was less than 0.06 µg/mL, the “MIC Enterococcus avium (GC 4558)” value (Enterococcus sp.; [1]) was 2 µg/mL (≈ 1.3 µM) and the “MIC Enterococcus faecalis (ATCC 29212)” value (Enterococcus sp.; [1]) was 8 µg/mL (≈ 5.21 µM). For the same compound, the “MIC Enterococcus faecalis (GC 2242)” value (Enterococcus sp.; [1]) was 8 µg/mL (≈ 5.21 µM), the “MIC Enterococcus faecalis (GC 2691)” value (Enterococcus sp.; [1]) was 2 µg/mL (≈ 1.3 µM) and the “MIC Enterococcus faecalis (GC 3059)” value (Enterococcus sp.; [1]) was 4 µg/mL (≈ 2.6 µM). For the same compound, the “MIC Enterococcus faecalis (GC 4552)” value (Enterococcus sp.; [1]) was 8 µg/mL (≈ 5.21 µM), the “MIC Enterococcus faecalis (GC 4553)” value (Enterococcus sp.; [1]) was 4 µg/mL (≈ 2.6 µM) and the “MIC Enterococcus faecalis (GC 4554)” value (Enterococcus sp.; [1]) was 4 µg/mL (≈ 2.6 µM). For the same compound, the “MIC Enterococcus faecalis (GC 6189)” value (Enterococcus sp.; [1]) was 2 µg/mL (≈ 1.3 µM), the “MIC Enterococcus faecium (GC 2243)” value (Enterococcus sp.; [1]) was 2 µg/mL (≈ 1.3 µM) and the “MIC Enterococcus faecium (GC 4556)” value (Enterococcus sp.; [1]) was 8 µg/mL (≈ 5.21 µM). The “MIC Enterococcus faecium (GC 4557)” value (Enterococcus sp.; [1]) was 4 µg/mL (≈ 2.6 µM), the “MIC Enterococcus faecalis (ATCC 29212)” value (Enterococcus sp.; strain ATCC 29212) was 8 µg/mL (≈ 5.21 µM) and the “MIC Enterococcus faecalis (GC 2242)” value (Enterococcus sp.; strain GC 2242) was 8 µg/mL (≈ 5.21 µM). For the same compound, the “MIC Enterococcus faecium (GC 2243)” value (Enterococcus sp.; strain GC 2243) was 2 µg/mL (≈ 1.3 µM), the “MIC Enterococcus faecalis (GC 2691)” value (Enterococcus sp.; strain GC 2691) was 2 µg/mL (≈ 1.3 µM) and the “MIC Enterococcus faecalis (GC 3059)” value (Enterococcus sp.; strain GC 3059) was 4 µg/mL (≈ 2.6 µM). For the same compound, the “MIC Enterococcus faecalis (GC 4552)” value (Enterococcus sp.; strain GC 4552) was 8 µg/mL (≈ 5.21 µM), the “MIC Enterococcus faecalis (GC 4553)” value (Enterococcus sp.; strain GC 4553) was 4 µg/mL (≈ 2.6 µM) and the “MIC Enterococcus faecalis (GC 4554)” value (Enterococcus sp.; strain GC 4554) was 4 µg/mL (≈ 2.6 µM). The “MIC Enterococcus faecium (GC 4556)” value (Enterococcus sp.; strain GC 4556) was 8 µg/mL (≈ 5.21 µM), the “MIC Enterococcus faecium (GC 4557)” value (Enterococcus sp.; strain GC 4557) was 4 µg/mL (≈ 2.6 µM) and the “MIC Enterococcus avium (GC 4558)” value (Enterococcus sp.; strain GC 4558) was 2 µg/mL (≈ 1.3 µM). The “MIC Enterococcus faecalis (GC 6189)” value (Enterococcus sp.; strain GC 6189) was 2 µg/mL (≈ 1.3 µM), the “MIC Staphylococcus aureus (ATCC 29213)” value (Staphylococcus sp.; 5×10^5 CFU/mL) was 4 µg/mL (≈ 2.6 µM) and the “MIC Staphylococcus aureus (GC 1131)” value (Staphylococcus sp.; 5×10^5 CFU/mL) was 8 µg/mL (≈ 5.21 µM). The “MIC Staphylococcus aureus (GC 3051)” value (Staphylococcus sp.; 5×10^5 CFU/mL) was 2 µg/mL (≈ 1.3 µM), the “MIC Staphylococcus aureus (GC 3053)” value (Staphylococcus sp.; 5×10^5 CFU/mL) was 2 µg/mL (≈ 1.3 µM) and the “MIC Staphylococcus aureus (GC 4541)” value (Staphylococcus sp.; 5×10^5 CFU/mL) was 8 µg/mL (≈ 5.21 µM). For the same compound, the “MIC Staphylococcus aureus (GC 4542)” value (Staphylococcus sp.; 5×10^5 CFU/mL) was 4 µg/mL (≈ 2.6 µM), the “MIC Staphylococcus aureus (GC 4544)” value (Staphylococcus sp.; 5×10^5 CFU/mL) was 4 µg/mL (≈ 2.6 µM) and the “MIC Staphylococcus aureus (GC 4545)” value (Staphylococcus sp.; 5×10^5 CFU/mL) was 4 µg/mL (≈ 2.6 µM). For the same compound, the “MIC Staphylococcus aureus (ATCC 29213)” value (Staphylococcus sp.; strain ATCC 29213) was 4 µg/mL (≈ 2.6 µM), the “MIC Staphylococcus aureus (GC 1131)” value (Staphylococcus sp.; strain GC 1131) was 8 µg/mL (≈ 5.21 µM) and the “MIC Staphylococcus aureus (GC 3051)” value (Staphylococcus sp.; strain GC 3051) was 2 µg/mL (≈ 1.3 µM). The “MIC Staphylococcus aureus (GC 3053)” value (Staphylococcus sp.; strain GC 3053) was 2 µg/mL (≈ 1.3 µM), the “MIC Staphylococcus aureus (GC 4541)” value (Staphylococcus sp.; strain GC 4541) was 8 µg/mL (≈ 5.21 µM) and the “MIC Staphylococcus aureus (GC 4542)” value (Staphylococcus sp.; strain GC 4542) was 4 µg/mL (≈ 2.6 µM). For the same compound, the “MIC Staphylococcus aureus-SMITH (GC 4543)” value (Staphylococcus sp.; strain GC 4543) was 4 µg/mL (≈ 2.6 µM), the “MIC Staphylococcus aureus (GC 4544)” value (Staphylococcus sp.; strain GC 4544) was 4 µg/mL (≈ 2.6 µM) and the “MIC Staphylococcus aureus (GC 4545)” value (Staphylococcus sp.; strain GC 4545) was 4 µg/mL (≈ 2.6 µM). The “MIC Staphylococcus haemolyticus (GC 4546)” value (Staphylococcus sp.; strain GC 4546) was 8 µg/mL (≈ 5.21 µM), the “MIC Coagulase Negative Staphylococcus (GC 4547)” value (Staphylococcus sp.; strain GC 4547) was 4 µg/mL (≈ 2.6 µM) and the “MIC Coagulase Negative Staphylococcus (GC 4548)” value (Staphylococcus sp.; strain GC 4548) was 2 µg/mL (≈ 1.3 µM). The “MIC Coagulase Negative Staphylococcus (GC 4549)” value (Staphylococcus sp.; strain GC 4549) was 4 µg/mL (≈ 2.6 µM), the “MIC Coagulase Negative Staphylococcus (GC 4551)” value (Staphylococcus sp.; strain GC 4551) was 4 µg/mL (≈ 2.6 µM) and the “MIC Coagulase Negative Staphylococcus (GC 6257)” value (Staphylococcus sp.; strain GC 6257) was 2 µg/mL (≈ 1.3 µM). The “MIC Escherichia coli (ATCC 25922)” value (Escherichia coli; strain ATCC 25922) was greater than 64 µg/mL, the “MIC Escherichia coli (GC 4559)” value (Escherichia coli; strain GC 4559) was greater than 64 µg/mL and the “MIC Escherichi coli (GC 4560)” value (Escherichia coli; strain GC 4560) was 4 µg/mL (≈ 2.6 µM).

— patent US8247211B2, “Glycopeptide antibiotics” (American Cyanamid Company, priority 2001, dated 2012)
